Measured values reported in paper PMC5789092 (Scientific Reports, 2018).
Like-named read-outs stand apart in the source and are kept apart here.

Assays:
[1] = test system: HEp-2 (human larynx epidermal cancer); experiment: SRB cytotoxicity assay, HEp-2; type: cell-based; settings: 72 h, mean ± SD
Description: (§1) All the synthesized derivatives of 1 and 2 were screened for their anticancer activities against four human cancer cell lines (HeLa, PC-3, HEp-2 and HepG2) and two normal cell lines (CHO and HUVEC) using the sulforhodamine B (SRB) assay.
(§2) PC-3 (human prostate cancer), HepG2 (human liver cancer) and CHO (Chinese hamster ovary) cell lines were obtained from Shanghai Institute of Biochemistry and Cell Biology, Chinese Academy of Sciences. HeLa (human cervix cancer), HUVEC (human umbilical vein endothelial cells) and HEp-2 (human laryngeal cancer) cell lines were granted by Prof. Lei of college of life sciences, Northwest A&F University. The six cell lines were grown in RPMI-1640 (Gibco) containing 10% (v/v) thermally inactivated fetal bovine serum (FBS), penicillin (100 KU/L) and streptomycin (100 KU/L) at 37 °C in a 5% CO2 humidified incubator.
(§3) In vitro cytotoxicity was assessed by using the SRB colorimetric assay refer to previous methods[19],[42].

[2] = test system: HepG2 (human liver cancer); experiment: SRB cytotoxicity assay, HepG2; type: cell-based; settings: 72 h
[3] = test system: PC-3 (human prostate cancer); experiment: SRB cytotoxicity assay, PC-3; type: cell-based; settings: 72 h
[4] = test system: HeLa (human cervix cancer); experiment: SRB cytotoxicity assay, HeLa; type: cell-based; settings: 72 h, mean ± SD
[5] = test system: CHO (Chinese hamster ovary); settings: footnote b; ref Xiang et al.[22]; cited from earlier work
[6] = test system: HUVEC (human umbilical vein endothelial cell); experiment: SRB cytotoxicity assay, HUVEC normal cells; type: cell-based; settings: for IC50: Homo sapiens, HUVEC, 72 h, SRB, normal cell line
[7] = test system: HeLa, PC-3, HEp-2 and HepG2 cells; experiment: SRB cytotoxicity, summary over the cancer cell lines; type: cell-based, human
[8] = test system: PC-3 cells; experiment: Cell cycle analysis (PI staining, flow cytometry); type: cell-based, human; settings: PC-3, 48 h
Method: The cultured cells were treated with these compounds at the indicated concentrations for 48 h, then harvested, and analyzed by flow cytometry. […] Each experiment was performed in triplicate.
The cell cycle arrest on PC-3 and HepG2 cells was detected with PI staining assay (Sigma) as described previously[19]. After treatment with samples at the set concentrations for 48 h, cells were centrifuged and fixed in 70% ethanol at 4 °C refrigerator 12 h and then resuspended in PBS (100 μL RNase A and 400 μL PI). Cellular DNA content was measured using a FACSCalibur flow cytometer with Modfit LT 3.0 software. Twenty thousand cells were collected per sample. Mean values are presented from three independent experiments.

[9] = test system: HEp-2 (human larynx epidermal cancer); settings: footnote b; ref Xiang et al.[22]; cited from earlier work
[10] = test system: CHO (Chinese hamster ovary); experiment: SRB cytotoxicity assay, CHO normal cells; type: cell-based; settings: Cricetulus griseus, 72 h, normal cell line
Description: as §1, §2, §3

[11] = test system: pro-caspase 3 and PARP in PC-3 cells; experiment: Western blotting of pro-caspase 3 and PARP; type: cell-based, human; settings: PC-3, 72 h, 1, 2 and 4 μM
Method: (§4) Figure 10 Induction of apoptosis by active compound 1i and VP-16 at the indicated concentrations on PC-3 cells. (a) 72 h after the treatment of these compounds at the indicated concentrations, cells were fixed, washed with PBS, stained with Hoechst 33258, and analyzed for morphological characteristics associated with apoptosis by fluorescence microscopic analysis (×20). (b) Compound 1i triggered changes of pro-caspase 3 and PARP by Western blotting analysis. Cells were lysed after 72 h treatment with 1i at the concentration (1, 2 and 4 μM). The lysates were resolved on a 10% SDS-PAGE, transferred on to a nitrocellulose membrane and probed for cleaved caspase 3 and PARP. β-actin was used as a loading control.
PC-3 cells were treated with the indicated concentrations (1, 2 and 4 µM) of 1i for 72 h, cell were collected and lysed. The protein concentration was measured by BCA method, and equal amount proteins were electrophoresed on 10% SDS-PAGE gel, electrotransferred onto NC membrane, and incubated with appropriate primary and secondary antibodies, protein blots were tested by ECL solution and ChemiDoc XRS+ imaging system (Bio-Rad, USA).

[12] = test system: HepG2 cells; experiment: Hoechst 33258 nuclear morphology, HepG2; type: cell-based, human; settings: HepG2, 72 h
Method: Figure S2. Induction of apoptosis by active compounds 1 and 1i at the indicated concentrations on HepG2 cells. 72 h after the treatment of these compounds at the indicated concentrations, cells were fixed, washed with PBS, stained with Hoechst 33258, and analyzed for morphological characteristics associated with apoptosis by fluorescence microscopic analysis (20×). NMR spectra

[13] = test system: PC-3 cells; experiment: Hoechst 33258 nuclear chromatin condensation, PC-3; type: cell-based, human; settings: PC-3, 72 h; VP-16 0.5 and 1 μM; 1i 1, 2 and 4 μM
Method: as §4
Condensation of nuclear chromatin is usually the late apoptotic event and is detected by staining Hoechst 33258[43]. PC-3 cells containing 2.0 × 10^5 cells/well were cultured on coverslips, and kept in six-well plates for 12 h. After 72 h treatment with 1i and VP-16, Hoechst 33258 staining was carried out according to the kit’s procedure (Beyotime Institute Biotechnology, China). The cells were viewed under a fluorescence microscopy (Olympus BX53 + DP72) with a ×20 objective lens.

[14] = mean ± SD, read-out: IC50 HepG2
[15] = read-out: IC50 HepG2 (Table 3, C13-methylene modified derivatives)
[16] = read-out: IC50 PC-3 (Table 3, C13-methylene modified derivatives)

| Structure (SMILES) | IC50 [1] [µM] | IC50 [2, 14] [µM] | IC50 ([3]; mean ± SD, read-out: IC50 PC-3) [µM] | IC50 [4] [µM] | IC50 [2, 15] [µM] | IC50 [3, 16] [µM] | further results |
| --- | --- | --- | --- | --- | --- | --- | --- |
| C=C1C(=O)O[C@@H]2C[C@]3(C)C(=C[C@H]12)[C@@H](C)CC[C@H]3OC(=O)c1ccc(OC)cc1 [1e] | > 40 | 34.1 ± 4.8 | > 40 | > 40 |  |  |  |
| C=C1C(=O)OC2CC3(C)C(=CC12)C(C)CCC3O (stereo not drawn) [compound 1, 1β-hydroxyalantolactone] |  | 5.2 ± 0.1 | 4.5 ± 0.7 | 3.2 ± 0.8 |  |  | IC50 [5]: 6.4 ± 0.1 µM; IC50 [6]: 9.2 ± 0.1 µM; IC50 ([7]; Homo sapiens, range over four cancer cell lines, read-out: IC50 range against HeLa, PC-3, HEp-2 and HepG2 cells): 3.2 to 6.4 µM; %G0/G1 ([8]; 1.0 μM): 51.2%; %G2/M ([8]; 1.0 μM): 17.1%; %S ([8]; 1.0 μM): 31.7%; %G0/G1 ([8]; 2.0 μM): 49.3%; %G2/M ([8]; 2.0 μM): 16.7%; %S ([8]; 2.0 μM): 34.0%; %G0/G1 ([8]; 4.0 μM): 45.8%; %G2/M ([8]; 4.0 μM): 18.0%; %S ([8]; 4.0 μM): 36.2%; IC50 [9]: 3.3 ± 0.2 µM |
| COc1cc(C2=NO[C@]3(C2)C(=O)O[C@@H]2C[C@@]4(C)C(=O)CC[C@H](C)C4=C[C@@H]23)c(Cl)c(OC)c1OC [1q, (11 S)-16-(2-chloro-3,4,5-trimethoxylphenyl)-spiroisoxazoline-1-carbonyl-alantolactone] |  |  |  |  | > 40 | > 40 |  |
| COc1ccc(C2=NO[C@]3(C2)C(=O)O[C@@H]2C[C@@]4(C)C(=O)CC[C@H](C)C4=C[C@@H]23)cc1 [1o, (11 S)-16-(p-methoxyphenyl)-spiroisoxazoline-1-carbonyl-alantolactone] |  |  |  |  | > 40 | > 40 |  |
| C=C1C(=O)O[C@@H]2C[C@]3(C)C(=C[C@H]12)[C@@H](C)CC[C@H]3OC(=O)/C=C/c1ccc(Br)cc1 [1f, 1β-(4-bromocinnamoyl) alantolactone] | > 40 | 12.5 ± 2.2 | 18.7 ± 5.2 | > 40 |  |  |  |
| C=C1C(=O)O[C@@H]2C[C@]3(C)C(=C(C)CC[C@H]3OC(=O)c3ccccc3)C[C@H]12 [2b, 1β-benzoyl ivangustin] | > 40 | > 40 | > 40 | 27.9 ± 2.5 |  |  |  |
| C=C1C(=O)O[C@@H]2C[C@]3(C)C(=C[C@H]12)[C@@H](C)CC[C@H]3OC(=O)/C=C/c1ccc(C(F)(F)F)cc1 [1g, 1β-(4-trifluoromethyl) alantolactone] | > 40 | 15.2 ± 3.8 | 11.8 ± 2.8 | 10 ± 2.1 |  |  |  |
| C[C@H]1CCC(=O)[C@]2(C)C[C@H]3OC(=O)[C@]4(CC(c5ccc(Cl)cc5)=NO4)[C@H]3C=C12 [1n, (11 S)-16-(p-chlorophenyl)-spiroisoxazoline-1-carbonyl-alantolactone] |  |  |  |  | > 40 | > 40 |  |
| C[C@H]1CCC(=O)[C@]2(C)C[C@H]3OC(=O)[C@]4(CC(c5ccccc5[N+](=O)[O-])=NO4)[C@H]3C=C12 [1m, (11 S)-16-(o-nitrophenyl)-spiroisoxazoline-1-carbonyl-alantolactone] |  |  |  |  | > 40 | > 40 |  |
| C=C1C(=O)O[C@@H]2C[C@]3(C)C(=C[C@H]12)[C@@H](C)CC[C@H]3OC(=O)c1ccc(F)cc1 [1c, 1β-(4-fluorobenzoyl) alantolactone] | > 40 | > 40 | > 40 | > 40 |  |  |  |
| C=C1C(=O)O[C@@H]2C[C@@]3(C)C(=O)CCC(C)=C3C[C@H]12 [2d, 1-carbonyl-ivangustin] | 14.1 ± 2.9 | 7.7 ± 1.5 | 7 ± 2.1 | 8.6 ± 1.4 |  |  | IC50 [6]: 10.5 ± 0.5 µM; IC50 [10]: 12.1 ± 5.2 µM |
| C=C1C(=O)O[C@@H]2C[C@]3(C)C(=C[C@H]12)[C@@H](C)CC[C@H]3OC(=O)CCC(=O)O [1h, 1β-carboxypropionyl alantolactone] | > 40 | > 40 | > 40 | > 40 |  |  | IC50 [6]: 39.5 ± 2.5 µM |
| CC1CCC(O)C2(C)CC3OC(=O)C(C)C3C=C12 (stereo not drawn) [1r, (11 S)-1β-hydroxy alantolactone derivative] |  |  |  |  | > 50 | > 50 | cytotoxic activity in words ([7]; SAR statement on Tables 2 and 3): loss of cytotoxic activity |
| C=C1C(=O)O[C@@H]2C[C@]3(C)C(=C(C)CC[C@H]3OC(C)=O)C[C@H]12 [2a, 1β-ethanoyl ivangustin] | > 40 | > 40 | 28.9 ± 4.5 | 32.3 ± 2 |  |  |  |
| C=C1C(=O)O[C@@H]2C[C@]3(C)C(=C[C@H]12)[C@@H](C)CC[C@H]3OC(=O)c1ccccc1 [1b, 1β-benzoyl alantolactone] | > 40 | > 40 | > 40 | 25.5 ± 3.2 |  |  |  |
| Cc1ccc(C2=NO[C@]3(C2)C(=O)O[C@@H]2C[C@@]4(C)C(=O)CC[C@H](C)C4=C[C@@H]23)cc1 [1k, (11 S)-16-(p-methylphenyl)-spiroisoxazoline-1-carbonyl-alantolactone] |  |  |  |  | > 40 | > 40 |  |
| C=C1C(=O)OC2CC3(C)C(=CC12)C(C)CCC3OC(C)=O (stereo not drawn) [1a, 1β-ethanoyl alantolactone] | 10.3 ± 1.8 | 6.3 ± 1.3 | 8.1 ± 0.3 | 8.2 ± 1 |  |  | IC50 [6]: 12.3 ± 1.6 µM; IC50 [10]: 10.3 ± 1.8 µM |
| C=C1C(=O)O[C@@H]2C[C@]3(C)C(=C(C)CC[C@H]3OC(=O)c3ccc(F)cc3)C[C@H]12 [2c, 1β-(4-fluorobenzoyl) ivangustin] | > 40 | > 40 | > 40 | > 40 |  |  |  |
| C[C@H]1CCC(=O)[C@]2(C)C[C@H]3OC(=O)[C@]4(CC(c5ccc([N+](=O)[O-])cc5)=NO4)[C@H]3C=C12 [1l, (11 S)-16-(p-nitrophenyl)-spiroisoxazoline-1-carbonyl-alantolactone] |  |  |  |  | > 40 | > 40 |  |
| COc1ccc(Cl)cc1C1=NO[C@]2(C1)C(=O)O[C@@H]1C[C@@]3(C)C(=O)CC[C@H](C)C3=C[C@@H]12 [1p, (11 S)-16-(5-chloro-2-methoxylphenyl)-spiroisoxazoline-1-carbonyl-alantolactone] |  |  |  |  | > 40 | > 40 |  |
| C=C1C(=O)O[C@@H]2C[C@@]3(C)C(=O)CC[C@H](C)C3=C[C@H]12 [1i, 1-carbonyl-alantolactone] | 3.5 ± 0.9 | 5.1 ± 0.2 | 2.5 ± 0.8 | 2.7 ± 0.1 | > 40 | > 40 | IC50 [6]: 8.8 ± 0.7 µM; selectivity index (IC50 on four cancer cells versus HUVEC cells) ([6]; comparison of IC50 between four cancer cells and HUVEC): 2–3; pro-caspase 3 and cleavage of PARP (Western blot) [11]: significant dose-dependent decrease in pro-caspase 3 and the cleavage of its substrate PARP; %G0/G1 ([8]; 1.0 μM): 50.5%; %G2/M ([8]; 1.0 μM): 17.5%; %S ([8]; 1.0 μM): 32.0%; %G0/G1 ([8]; 2.0 μM): 47.7%; %G2/M ([8]; 2.0 μM): 18.5%; %S ([8]; 2.0 μM): 33.8%; %G0/G1 ([8]; 4.0 μM): 44.6%; %G2/M ([8]; 4.0 μM): 19.5%; %S ([8]; 4.0 μM): 35.9%; IC50 [10]: 2.5 ± 0.2 µM; nuclear morphology (Hoechst 33258), apoptosis [12]: Changes of nuclear morphology; nuclear morphology (Hoechst 33258), apoptosis [13]: apoptotic tendency was apparent |
| C=C1C(=O)O[C@@H]2C[C@]3(C)C(=C[C@H]12)[C@@H](C)CC[C@H]3OC(=O)c1ccc([N+](=O)[O-])cc1 [1d] | > 40 | 23.5 ± 3.6 | > 40 | > 40 |  |  |  |
| CC1CCC(OC(=O)c2ccccc2)C2(C)CC3OC(=O)C4(CCC(=O)O4)C3C=C12 (stereo not drawn) [1j, 1β-benzoyl alanto-spirobislactone] |  |  |  |  | > 40 | > 40 |  |
